Test results reported in PMC8047011, “Enantiomers of 2-methylglutamate and 2-methylglutamine selectively impact mouse brain metabolism and behavior” (Scientific Reports, 2021).

Legend:
C57Bl/6 mice [1] = test: Y maze spontaneous alternation; format: in vivo, mouse; conditions: chronic 10 mg/kg/day IP, week 2 of testing
Text: (§1) Y Maze Spontaneous Alternation: The Y maze is made of plastic with 3 arms in a "Y" shape.
(§2) The arms are labelled as Arm A, B, and C; Arm A is 20.32 cm (L) x 5 cm (W) 12.7 cm (H), Arm B and C are 15.24 cm (L) x 5 cm (W), and 12.7 cm (H). The test is based on the willingness of rodents to explore a novel environment and designed to measure spontaneous alternations in rodents. Each mouse was placed in the center of the maze facing Arm B. The first entry was excluded from data analysis because the animals were led to the initial arm entry by the experimenter. Using an overhead camera, the number of arm entries and alternations were recorded for 5 minutes. An arm entry is when all four paws enter into a new arm of the maze.
The apparatus was cleaned with 1% Virkon. Parameters recorded were % alternation and the total number of entries into arms. […]

[2] = system: mouse cerebral synaptosomes; test: Potassium-induced neurotransmitter release assay; format: cell-based; conditions: preincubated with 100 μM substrate 15 min 37 °C; high-potassium KRP buffer
Experimental: To each tube, 2.5 μL of a test compound solution (final concentration 100 μM) in Buffer KRP or Buffer KRP alone were added. Samples were incubated for 15 min at 37 °C, briefly chilled on ice, and then immediately centrifuged and washed twice with Buffer KRP. The resulting pellets were then resuspended in either Buffer KRP (500 μL) or Buffer K-KRP (500 μL). Samples were immediately centrifuged or incubated for 5, 10 or 15 min at 37 °C, then centrifuged and washed with Buffer KRP. Resulting pellets were resuspended in 400 μL of 60% ACN containing 2.5 μM Glu-d5 and 2.5 μM Gln-d5 as internal standards.

[3] = Pharmacokinetics in mouse serum and brain; format: in vivo; conditions: 100 mg/kg IP
Experimental: Pharmacokinetics on 2MeGlu and 2MeGln in mice
C57BL/6 mice (Jackson Laboratory cat. no. 000664) were administered 100 mg/kg IP. At the times indicated, mice were deeply anesthetized by isoflurane, blood was collected by cardiac puncture and left to clot on ice, and then animals were perfused with cold PBS until viscera […]
dissected and one half frozen at –80 °C until homogenization in ice cold PBS (pH 7.4) using a probe ultrasonic homogenizer (Branson Sonifier 450, Power: 5, Cycle: 30%, time: 10 s) on ice.
The lysate was centrifuged (2,500g for 15 min at 4 °C) and the supernatant was assayed using Pierce BCA Protein Assay Kit (23225) using BioTek Epoch plate spectrophotometer by recording absorbance at 562 nm.
Two or three 10 μL aliquots of the homogenate were transferred to a 96 well plate and extracted with 190 μL of 60% acetonitrile in water containing 10 μM GABA-d6 or 10 μM Glu-d5 and Gln-d5 as internal standards. 40 μL aliquots of the extracts were then diluted with 120 μL of acetonitrile and prepared for LC-MS/MS analysis. Brain and serum half-lives were calculated using the ‘PKNCA’ package for R. Endogenous levels of Glu, Gln and GABA were determined in the brains of mice used in the pharmacokinetics experiment. MRM transitions specific for Glu, Gln and GABA were monitored simultaneously. […]

C57Bl/6 mice [4] = test: Morris water maze; format: in vivo, mouse; conditions: chronic 10 mg/kg/day IP, weeks 2 and 3 of testing
Text: See Supplementary Methods for details.
Elevated Plus Maze: The maze was made of acrylonitrile butadiene styrene (ABS) plastic and had two open arms and two close arms that were 30 cm long and 5 cm wide. The center area where the open and close arms meet was 5 cm x 5 cm. The open arms had 2 mm lips at the edges, and the closed arms had 15 cm opaque walls. The maze was elevated 50 cm and surrounded by privacy blinds during the test. The maze was illuminated to 7 lux using red light throughout the test. Each mouse was released in the center of the maze and given 5 min to explore the maze. Duration and frequency in each zone of the maze were recorded using Ethovision (Noldus Information Technology, Wageningen, the Netherlands) tracking software.
as §1, §2
The apparatus was cleaned with 1% Virkon. Parameters recorded were % alternation and the total number of entries into arms. The Y maze test was conducted after two weeks of exposure […]
A ping pong ball was erected from the submerged platform and the mice were given two trials of Visible Platform Training to ensure they lacked gross sensorimotor deficit and visual impairment. The escape latency, distance moved, duration in zones, and velocity of the animals were recorded using Ethovision XT (Noldus Information Technology, Wageningen, Netherlands). […]

| SMILES | Spontaneous alternation in the Y maze (C57Bl/6 mice [1]) | Potassium-induced release from preloaded synaptosomes [2] | Brain accumulation (with metabolite (S)-2MeGln) relative to (R)-2MeGlu [3] | Maximum brain concentration [3] | Time of peak brain concentration [3] | Learning in the Morris water maze (C57Bl/6 mice [4]) | half-life ([3]; C57BL/6, brain, estimated) |
| --- | --- | --- | --- | --- | --- | --- | --- |
| C[C@](N)(CCC(=O)O)C(=O)O [(S)-2MeGlu, (S)-2-methylglutamic acid] | no significant effect of treatment | released upon depolarization in a manner very similar to endogenous Glu | as much as tenfold more | 50 pmol/mg protein | 25 min | no significant effect of treatment | – |
| CC(N)(CCC(N)=O)C(=O)O (racemic) [rac-2MeGln, rac-2-methylglutamine] | no significant effect of treatment | – | – | – | 25 min | no significant effect of treatment | – |
| C[C@@](N)(CCC(=O)O)C(=O)O [(R)-2MeGlu, (R)-2-methylglutamic acid] | no significant effect of treatment | not significantly altered by depolarization | – | 30 pmol/mg protein | ≤ 5 min | no significant effect of treatment | ~1.17 h |
